From patent US20260262643A1, “HERBICIDAL BENZOXAZINES” (FMC CORPORATION, priority 2022, published 2026)

Legend:
[1] = system: horseweed; assay: Test C postemergence; assay type: in vivo, Erigeron canadensis; conditions: postemergence, 10 days
How it was run: (§1)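 Test material, in non-phytotoxic solvent with surfactant, was sprayed on the soil directly after seeding (preemergence) or on young plants of 2–10 cm with one to two leaves (postemergence). Greenhouse, 10 days; 0–100 visual control scale.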

[2] = system: sedge, umbrella; assay: Test D flooded paddy test; assay type: in vivo, Cyperus difformis; conditions: 250 g ai/ha, applied to paddy water, visual rating after 13 to 14 days, scale 0 to 100 (0 no effect, 100 complete control)
How it was run: (§2)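 Visual ratings from 0, meaning no effect, to 100, meaning complete control, were assigned against untreated controls 13 to 14 days after compounds were added to the floodwater of pots kept 3 cm deep, with plants at the 2-leaf stage.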

[3] = system: soybean; assay: Test C preemergence; assay type: in vivo, Glycine max; conditions: preemergence, 0 to 100 scale (0 no effect, 100 complete control)
How it was run: as §1

[4] = system: barnyardgrass; assay: Test C preemergence; assay type: in vivo, Echinochloa crusgalli; conditions: preemergence, 0 to 100 scale (0 no effect, 100 complete control)
How it was run: as §1

[5] = system: corn; assay: Test C preemergence; assay type: in vivo, Zea mays; conditions: preemergence, 0 to 100 scale (0 no effect, 100 complete control)
How it was run: as §1

[6] = system: green foxtail; assay: Test C preemergence; assay type: in vivo, Setaria viridis; conditions: preemergence, 0 to 100 scale (0 no effect, 100 complete control)
How it was run: as §1

[7] = system: soybean; assay: Test C postemergence; assay type: in vivo, Glycine max; conditions: postemergence, 10 days
How it was run: as §1

[8] = system: wheat; assay: Test C postemergence; assay type: in vivo, Triticum aestivum; conditions: postemergence, 10 days
How it was run: as §1

[9] = system: barnyardgrass; assay: Test D flooded paddy test; assay type: in vivo, Echinochloa crus-galli; conditions: 250 g ai/ha, applied to paddy water, visual rating after 13 to 14 days, scale 0 to 100 (0 no effect, 100 complete control)
How it was run: as §2

[10] = system: ryegrass, Italian; assay: Test C postemergence; assay type: in vivo, Lolium multiflorum; conditions: postemergence, 10 days
How it was run: as §1

[11] = system: rice; assay: Test D flooded paddy test; assay type: in vivo, Oryza sativa; conditions: 250 g ai/ha, applied to paddy water, visual rating after 13 to 14 days, scale 0 to 100 (0 no effect, 100 complete control)
How it was run: as §2

[12] = system: blackgrass; assay: Test C preemergence; assay type: in vivo, Alopecurus myosuroides; conditions: preemergence, 0 to 100 scale (0 no effect, 100 complete control)
How it was run: as §1

[13] = system: oat, wild; assay: Test C postemergence; assay type: in vivo, Avena fatua; conditions: postemergence, 10 days
How it was run: as §1

[14] = system: corn; assay: Test C postemergence; assay type: in vivo, Zea mays; conditions: postemergence, 10 days
How it was run: as §1

[15] = system: blackgrass; assay: Test C postemergence; assay type: in vivo, Alopecurus myosuroides; conditions: postemergence, 10 days
How it was run: as §1

[16] = system: green foxtail; assay: Test C postemergence; assay type: in vivo, Setaria viridis; conditions: postemergence, 10 days
How it was run: as §1

[17] = system: kochia; assay: Test C preemergence; assay type: in vivo, Bassia scoparia; conditions: preemergence, 0 to 100 scale (0 no effect, 100 complete control)
How it was run: as §1

[18] = system: pigweed, palmer; assay: Test C preemergence; assay type: in vivo, Amaranthus palmeri; conditions: preemergence, 0 to 100 scale (0 no effect, 100 complete control)
How it was run: as §1

[19] = system: ragweed; assay: Test C postemergence; assay type: in vivo, Ambrosia artemisiifolia; conditions: postemergence, 10 days
How it was run: as §1

[20] = system: wheat; assay: Test C preemergence; assay type: in vivo, Triticum aestivum; conditions: preemergence, 0 to 100 scale (0 no effect, 100 complete control)
How it was run: as §1

[21] = system: barnyardgrass; assay: Test C postemergence; assay type: in vivo, Echinochloa crusgalli; conditions: postemergence, 10 days
How it was run: as §1

[22] = system: pigweed, palmer; assay: Test C postemergence; assay type: in vivo, Amaranthus palmeri; conditions: postemergence, 10 days
How it was run: as §1

[23] = system: oat, wild; assay: Test C preemergence; assay type: in vivo, Avena fatua; conditions: preemergence, 0 to 100 scale (0 no effect, 100 complete control)
How it was run: as §1

[24] = system: ducksalad; assay: Test D flooded paddy test; assay type: in vivo, Heteranthera limosa; conditions: 250 g ai/ha, applied to paddy water, visual rating after 13 to 14 days, scale 0 to 100 (0 no effect, 100 complete control)
How it was run: as §2

[25] = system: ragweed; assay: Test C preemergence; assay type: in vivo, Ambrosia artemisiifolia; conditions: preemergence, 0 to 100 scale (0 no effect, 100 complete control)
How it was run: as §1

[26] = system: galium; assay: Test C postemergence; assay type: in vivo, Galium aparine; conditions: postemergence, 10 days
How it was run: as §1

[27] = system: ryegrass, Italian; assay: Test C preemergence; assay type: in vivo, Lolium multiflorum; conditions: preemergence, 0 to 100 scale (0 no effect, 100 complete control)
How it was run: as §1

[28] = system: kochia; assay: Test C postemergence; assay type: in vivo, Bassia scoparia; conditions: postemergence, 10 days
How it was run: as §1

[29] = 125 g ai/ha, 0 to 100 scale, 0 no effect, 100 complete control
[30] = 500 g ai/ha, 0 to 100 scale (0 no effect, 100 complete control)

Cc1ccc(-n2cnc(C(C)C)n2)cc1C(=O)N1CC(C(F)(F)F)Oc2c(Cl)cccc21 (single isomer, unassigned) [Compound 292]
Plant response rating, Horseweed [1, 29]: 20 | Plant response rating, Horseweed [1, 30]: 60 | Plant response rating, Sedge, Umbrella (Flood) [2]: 0 | Soybean plant response rating ([3]; 500 g ai/ha): 90 | Soybean plant response rating ([3]; Test C, 125 g ai/ha): 40 | Barnyardgrass plant response rating ([4]; 500 g ai/ha): 90 | Barnyardgrass plant response rating ([4]; Test C, 125 g ai/ha): 20 | Corn plant response rating ([5]; 500 g ai/ha): 10 | Corn plant response rating ([5]; Test C, 125 g ai/ha): 10 | Foxtail, Green plant response rating ([6]; 500 g ai/ha): 100 | Foxtail, Green plant response rating ([6]; Test C, 125 g ai/ha): 90 | Plant response rating, Soybean [7, 29]: 100 | Plant response rating, Soybean [7, 30]: 100 | Plant response rating, Wheat [8, 29]: 20 | Plant response rating, Wheat [8, 30]: 30 | Plant response rating, Barnyardgrass (Flood) [9]: 0 | Plant response rating, Ryegrass, Italian [10, 29]: 0 | Plant response rating, Ryegrass, Italian [10, 30]: 60 | Plant response rating, Rice (Flood) [11]: 0 | Blackgrass plant response rating ([12]; 500 g ai/ha): 90 | Blackgrass plant response rating ([12]; Test C, 125 g ai/ha): 30 | Plant response rating, Oat, Wild [13, 29]: 0 | Plant response rating, Oat, Wild [13, 30]: 50 | Plant response rating, Corn [14, 29]: 10 | Plant response rating, Corn [14, 30]: 20 | Plant response rating, Blackgrass [15, 29]: 0 | Plant response rating, Blackgrass [15, 30]: 20 | Plant response rating, Foxtail, Green [16, 29]: 30 | Plant response rating, Foxtail, Green [16, 30]: 40 | Kochia plant response rating ([17]; 500 g ai/ha): 60 | Kochia plant response rating ([17]; Test C, 125 g ai/ha): 30 | Pigweed, Palmer plant response rating ([18]; 500 g ai/ha): 100 | Pigweed, Palmer plant response rating ([18]; Test C, 125 g ai/ha): 100 | Plant response rating, Ragweed [19, 29]: 30 | Plant response rating, Ragweed [19, 30]: 20 | Wheat plant response rating ([20]; 500 g ai/ha): 50 | Wheat plant response rating ([20]; Test C, 125 g ai/ha): 20 | Plant response rating, Barnyardgrass [21, 29]: 10 | Plant response rating, Barnyardgrass [21, 30]: 20 | Plant response rating, Pigweed, Palmer [22, 29]: 80 | Plant response rating, Pigweed, Palmer [22, 30]: 80 | Oat, Wild plant response rating ([23]; 500 g ai/ha): 80 | Oat, Wild plant response rating ([23]; Test C, 125 g ai/ha): 40 | Plant response rating, Ducksalad (Flood) [24]: 0 | Ragweed plant response rating ([25]; 500 g ai/ha): 20 | Ragweed plant response rating ([25]; Test C, 125 g ai/ha): 20 | Plant response rating, Galium [26, 29]: 70 | Plant response rating, Galium [26, 30]: 80 | Ryegrass, Italian plant response rating ([27]; 500 g ai/ha): 100 | Ryegrass, Italian plant response rating ([27]; Test C, 125 g ai/ha): 90 | Plant response rating, Kochia [28, 29]: 70 | Plant response rating, Kochia [28, 30]: 90
